Experimental data published in ChEMBL document CHEMBL3784990, “Synthesis and in vitro anticancer evaluation of some 4,6-diamino-1,3,5-triazine-2-carbohydrazides as Rad6 ubiquitin conjugating enzyme inhibitors” (Bioorg Med Chem Lett, 2016).
Active and inactive are the calls of the source. The calls are words filed in the database; no cut-off is given here.

Experiments:
A2780 = assay: Cytotoxicity against human A2780 cells after 72 hrs by MTS assay; assay type: functional, cell-based; details: A2780, 72 h
[1] = Cytotoxicity against human H1299 cells after 72 hrs by MTS assay; assay type: functional, cell-based; details: NCI-H1299, 72 h
[2] = biological target: Ubiquitin-conjugating enzyme E2 B (Homo sapiens) (UniProt P63146); assay: Inhibition of human recombinant Rad6B assessed as suppression of Rad6B conjugation to ubiquitin at 25 nM pre-incubated for 1 hr by Western blot analysis
A549 = assay: Cytotoxicity against human A549 cells after 72 hrs by MTS assay; assay type: functional, cell-based; details: A549, 72 h
HT-29 = assay: Cytotoxicity against human HT-29 cells after 72 hrs by MTS assay; assay type: functional, cell-based; details: HT-29, 72 h
MDA-MB-231 = assay: Cytotoxicity against human MDA-MB-231 cells after 72 hrs by MTS assay; assay type: functional, cell-based; details: MDA-MB-231, 72 h
[3] = Cytotoxicity against human OV90 cells after 72 hrs by MTS assay; assay type: functional, cell-based; details: OV-90, 72 h
MCF7 = assay: Cytotoxicity against human MCF7 cells after 72 hrs by MTS assay; assay type: functional, cell-based; details: MCF7, 72 h
[4] = biological target: Ubiquitin-conjugating enzyme E2 B (Homo sapiens) (UniProt P63146); assay: Inhibition of human recombinant Rad6B assessed as suppression of H2A substrate ubiquitination at 25 nM pre-incubated for 1 hr before H2A addition by Western blot analysis

Sequence of Ubiquitin-conjugating enzyme E2 B (Homo sapiens) (P63146 whole entry): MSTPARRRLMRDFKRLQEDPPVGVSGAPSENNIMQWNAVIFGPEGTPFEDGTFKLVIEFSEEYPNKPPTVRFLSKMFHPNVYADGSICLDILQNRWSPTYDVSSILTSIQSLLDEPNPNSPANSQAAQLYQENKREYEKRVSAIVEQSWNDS

Structure (SMILES) | IC50 (A2780) [µM] | IC50 [1] [µM] | inhibition [2] | IC50 (A549) [µM] | IC50 (HT-29) [µM] | IC50 (MDA-MB-231) [µM] | IC50 [3] [µM] | IC50 (MCF7) [µM] | inhibition [4]
Cc1ccc(Nc2nc(N)nc(C(=O)NN)n2)cc1 | 5.5 | 40 | Active | 9.3 | 4.5 | 12.7 | 60 | 16 | –
COc1ccccc1Nc1nc(Nc2ccccc2OC)nc(C(=O)NNc2ccccc2)n1 | 5 | 26 | Active | 6.9 | 8.9 | 3.9 | 10 | 7.2 | –
Nc1nc(COC(=O)c2ccc([N+](=O)[O-])cc2)nc(Nc2ccccc2)n1 | 7.8 | 45 | Active | 7.2 | 8.3 | 4.6 | 60 | 5 | Active
COc1ccccc1Nc1nc(N)nc(C(=O)NN)n1 | 5.6 | 50 | Active | 7.5 | 8.6 | 15.7 | 90 | 11.8 | –
Cc1ccc(Nc2nc(Nc3ccc(C)cc3)nc(C(=O)NNc3ccccc3)n2)cc1 | 3.6 | 22 | Active | 11.6 | 5.2 | 3.5 | 5 | 4.2 | Active
COc1ccc(Nc2nc(N)nc(C(=O)NN)n2)cc1 | 14.7 | 65 | Active | 5.2 | 5.4 | 7.6 | 80 | 6.2 | –
O=C(NNc1ccccc1)c1nc(Nc2ccc(Cl)cc2)nc(Nc2ccc(Cl)cc2)n1 | 8.2 | 15 | Active | 7.8 | 4.1 | 3.5 | 60 | 4.2 | Active
O=C(NNc1ccccc1)c1nc(Nc2ccccc2)nc(Nc2ccccc2)n1 | 7.1 | 11 | Active | 14.6 | 9.5 | 2.5 | 8 | 6 | Active
NNC(=O)c1nc(N)nc(Nc2ccccc2)n1 | 7.3 | 65 | Active | 7.8 | 3.3 | 2.6 | 75 | 5.9 | –
COc1ccc(Nc2nc(Nc3ccc(OC)cc3)nc(C(=O)NNc3ccccc3)n2)cc1 | 6.3 | 5 | Active | 10.8 | 5.8 | 4.2 | 12 | 7.2 | Active
NNC(=O)c1nc(N)nc(Nc2ccc(Cl)cc2)n1 | 36.6 | 30 | Active | 7.5 | 4.6 | 24.6 | 85 | 8.8 | –
